We go through 6 molecules from article PMC7179955 (Pharmaceutical research, 2016).

Structures are written as SMILES. Converted amounts (≈) assume the structure as drawn. Counter-ions that a name gives are not always drawn. Like-named read-outs stand apart in the source and are kept apart here.

The conditions of data set [1]: administered with Coca-Cola (pH = 2.5) compared to water; cited from earlier work.
Data set [2] has as its system gastric pH. Kind of data set: Intra-gastric pH monitoring with the Heidelberg pH capsule. Format: in vivo, human.
A further data set concerns P-gp. To be noted: cited from earlier work.
The conditions of data set [3]: addition of 100 mg ritonavir to 300 mg atazanavir; cited from earlier work.
The conditions of data set [4]: cited from earlier work.
For data set [5] the following is noted: human, in vivo.
For data set [6] the following is noted: cited from earlier work. This is another data set of the same source.
In data set [7] the test system is gastric pH. Conditions: cited from earlier work.
Where [8] appears, read: fed state, rabeprazole pretreated.

In the case of `CC[C@@H]([C@H](C)O)n1ncn(-c2ccc(N3CCN(c4ccc(OC[C@@H]5CO[C@@](Cn6cncn6)(c6ccc(F)cc6F)C5)cc4)CC3)cc2)c1=O` [posaconazole], the “Increase in systemic exposure” value in data set [1] is recorded as greater than 70%.
Turning to `COCCCOc1ccnc(C[S+]([O-])c2nc3ccccc3[nH]2)c1C` (stereo not shown) [rabeprazole], in the data set on gastric pH [2] (pretreatment with rabeprazole, after light meal), the “Gastric pH around the time of atazanavir administration” value is on record as roughly 3.
With `COC(=O)N[C@H](C(=O)N[C@@H](Cc1ccccc1)[C@@H](O)CN(Cc1ccc(-c2ccccn2)cc1)NC(=O)[C@@H](NC(=O)OC)C(C)(C)C)C(C)(C)C` [Atazanavir], the “Inhibitory effect of a known P-gp inhibitor on atazanavir efflux” value in the data set with P-gp (pH 5.5) is recorded as 78%. The “Inhibitory effect of a known P-gp inhibitor on atazanavir efflux” value with P-gp (pH 7.4) was 245%. In addition, in data set [3], the “Increase in atazanavir AUC” value was 238% and the “Increase in atazanavir Cmax” value is given as 86%. Also, the Solubility (in general, the dissolved amount per volume that the medium holds) in data set [4] (pH 2) was 5200 µg/mL (≈ 7.38 mM). Moreover, in data set [4] (pH 4), the Solubility was less than 5 µg/mL. In addition, in data set [5], the “AUClast lost due to rabeprazole that was restored by addition of BHCl” value came out at 12%; the “Differences in Tmax across treatments” value is “No significant differences”; the “Individual decrease in AUClast and Cmax after rabeprazole pretreatment” value is on record as 11-48%; the “Mean exposure lost due to rabeprazole that was restored by addition of BHCl” value is listed as 12-13%. Further, the “Mean plasma concentration in Treatment C compared with Treatment B” value in data set [5] (1.5 h) is 3.4 times. In data set [6] (omeprazole 20 mg once daily), the “Reductions in boosted atazanavir exposures” value is reported as 39-46%. In addition, the Exposure reductions in data set [6] (ritonavir-boosted atazanavir with omeprazole 40 mg once daily, light meal) is given as 72-76%.
For `CC(C)c1nc(CN(C)C(=O)N[C@H](C(=O)N[C@@H](Cc2ccccc2)C[C@H](O)[C@H](Cc2ccccc2)NC(=O)OCc2cncs2)C(C)C)cs1` [Ritonavir], in data set [5], the “AUClast lost due to rabeprazole that was restored by addition of BHCl” value turned out to be 13% and the “Cmax lost due to rabeprazole that was restored by addition of BHCl” value is 12%.
As to `C[N+](C)(C)CC(=O)O` [BHCl, betaine hydrochloride], the “Average onset of effect (time to achieve a pH < 3)” value with gastric pH [7] (pilot study, rabeprazole-pretreated healthy volunteers) was roughly 5 minutes. In addition, the “Lowest observed gastric pH” value in the data set on gastric pH [2] (1500 mg BHCl after rabeprazole pretreatment, fed state, mean ± SD) stood at 0.838 ±0.391. For the same molecule, in the data set with gastric pH [2] (setting [8]), the “Length of the reacidification period (time for gastric pH to rebound to pH >4)” value came out at 76 ±20 minutes and the “Time to achieve lowest gastric pH after BHCl administration” value worked out at 67 ±33 minutes.
Turning to `COc1ccc2[nH]c([S+]([O-])Cc3ncc(C)c(OC)c3C)nc2c1` (stereo not shown) [omeprazole], the “Gastric pH around the time of atazanavir administration” value in the data set on gastric pH [7] (pretreatment with high-dose omeprazole) is listed as roughly 6.
